According to the supplement of paper PMC10307832:

Columns and labels:
Assay in all cases: relative viability (nuclei count vs DMSO), 5 days (fraction); higher = more cells survive
[1] = system: H3255
How it was run: (§1)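 Relative viability is defined as nuclei in treated wells over nuclei in vehicle wells. Duplicate plates were run and medians reported. Lung cancer cell lines in 1536-well plates were dosed by pin tool one day after seeding, with one drug or with a fixed anchor-drug dose plus five library-drug doses (not always all listed) in √10 steps, and nuclei were counted after 5 days.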

[2] = system: NCI-H1734
How it was run: as §1

[3] = system: NCI-H3122
How it was run: as §1

[4] = system: NCI-H2085
How it was run: as §1

[5] = system: NCI-H2023
How it was run: as §1

[6] = system: NCI-H520
How it was run: as §1

[7] = system: NCI-H2347
How it was run: as §1

[8] = system: LOU-NH91
How it was run: as §1

[9] = system: NCI-H1993
How it was run: as §1

[10] = system: EPLC-272H
How it was run: as §1

[11] = system: NCI-H2405
How it was run: as §1

[12] = system: RERF-LC-KJ
How it was run: as §1

[13] = system: HCC-44
How it was run: as §1

[14] = system: PC-14
How it was run: as §1

[15] = system: NCI-H1650
How it was run: as §1

[16] = system: COR-L23
How it was run: as §1

[17] = system: NCI-H647
How it was run: as §1

[18] = system: 201T
How it was run: as §1

[19] = system: NCI-H1563
How it was run: as §1

[20] = system: NCI-H441
How it was run: as §1

Q: With `CC1(C)CCC(c2ccc(Cl)cc2)=C(CN2CCN(c3ccc(C(=O)NS(=O)(=O)c4ccc(N[C@H](CCN5CCOCC5)CSc5ccccc5)c(S(=O)(=O)C(F)(F)F)c4)cc3)CC2)C1` [Navitoclax] + CC(C)C[C@H](NC(=O)[C@H](Cc1ccccc1)NC(=O)c1cnccn1)B(O)O [Bortezomib] (partner 0.002 µM) as the compound, how does the relative viability ([1]; first compound 0.005 µM) read?
A: 0.849

Q: And the relative viability ([1]; first compound 0.01581 µM)?
A: 1.09

Q: What about the relative viability ([1]; first compound 0.05 µM) of the same compound?
A: 0.836

Q: What about the relative viability ([1]; first compound 0.1581 µM) of the same compound?
A: 0.692

Q: And the relative viability ([1]; first compound 0.5 µM)?
A: 0.632

Q: What about the relative viability ([2]; first compound 0.005 µM) of the same compound?
A: 1.05

Q: And the relative viability ([2]; first compound 0.01581 µM)?
A: 1.12

Q: What about the relative viability ([2]; first compound 0.1581 µM) of the same compound?
A: 0.899

Q: What about the relative viability ([2]; first compound 0.5 µM) of the same compound?
A: 1.02

Q: What about the relative viability ([3]; first compound 0.005 µM) of the same compound?
A: 1.04

Q: What about the relative viability ([3]; first compound 0.01581 µM) of the same compound?
A: 1.02

Q: And the relative viability ([3]; first compound 0.05 µM)?
A: 1.04

Q: What about the relative viability ([3]; first compound 0.1581 µM) of the same compound?
A: 1.03

Q: What about the relative viability ([3]; first compound 0.5 µM) of the same compound?
A: 1.01

Q: What about the relative viability ([4]; first compound 0.005 µM) of the same compound?
A: 0.977

Q: What about the relative viability ([4]; first compound 0.01581 µM) of the same compound?
A: 1.09

Q: And the relative viability ([4]; first compound 0.05 µM)?
A: 0.855

Q: What about the relative viability ([4]; first compound 0.1581 µM) of the same compound?
A: 1.15

Q: And the relative viability ([4]; first compound 0.5 µM)?
A: 0.978

Q: What about the relative viability ([5]; first compound 0.005 µM) of the same compound?
A: 1.06

Q: What about the relative viability ([5]; first compound 0.01581 µM) of the same compound?
A: 1.18

Q: What about the relative viability ([5]; first compound 0.05 µM) of the same compound?
A: 0.857

Q: And the relative viability ([5]; first compound 0.1581 µM)?
A: 0.906

Q: What about the relative viability ([5]; first compound 0.5 µM) of the same compound?
A: 0.938

Q: What about the relative viability ([6]; first compound 0.005 µM) of the same compound?
A: 0.577

Q: What about the relative viability ([6]; first compound 0.01581 µM) of the same compound?
A: 0.743

Q: And the relative viability ([6]; first compound 0.05 µM)?
A: 0.869

Q: What about the relative viability ([6]; first compound 0.1581 µM) of the same compound?
A: 0.6

Q: What about the relative viability ([6]; first compound 0.5 µM) of the same compound?
A: 0.712

Q: What about the relative viability ([7]; first compound 0.005 µM) of the same compound?
A: 1.71

Q: And the relative viability ([7]; first compound 0.05 µM)?
A: 0.812

Q: And the relative viability ([7]; first compound 0.1581 µM)?
A: 1.03

Q: And the relative viability ([7]; first compound 0.5 µM)?
A: 1.09

Q: What about the relative viability ([8]; first compound 0.005 µM) of the same compound?
A: 0.418

Q: And the relative viability ([8]; first compound 0.01581 µM)?
A: 0.485

Q: And the relative viability ([8]; first compound 0.05 µM)?
A: 0.391

Q: And the relative viability ([8]; first compound 0.1581 µM)?
A: 0.449

Q: What about the relative viability ([8]; first compound 0.5 µM) of the same compound?
A: 0.339

Q: And the relative viability ([9]; first compound 0.005 µM)?
A: 1.11

Q: And the relative viability ([9]; first compound 0.01581 µM)?
A: 1.58

Q: And the relative viability ([9]; first compound 0.05 µM)?
A: 0.961

Q: What about the relative viability ([9]; first compound 0.1581 µM) of the same compound?
A: 0.958

Q: And the relative viability ([9]; first compound 0.5 µM)?
A: 1.06

Q: And the relative viability ([10]; first compound 0.005 µM)?
A: 0.925

Q: And the relative viability ([10]; first compound 0.1581 µM)?
A: 0.988

Q: What about the relative viability ([10]; first compound 0.5 µM) of the same compound?
A: 0.887

Q: What about the relative viability ([11]; first compound 0.005 µM) of the same compound?
A: 0.975

Q: What about the relative viability ([11]; first compound 0.01581 µM) of the same compound?
A: 1.09

Q: What about the relative viability ([11]; first compound 0.05 µM) of the same compound?
A: 0.816

Q: What about the relative viability ([11]; first compound 0.1581 µM) of the same compound?
A: 0.974

Q: What about the relative viability ([11]; first compound 0.5 µM) of the same compound?
A: 0.906

Q: What about the relative viability ([12]; first compound 0.005 µM) of the same compound?
A: 1.07

Q: And the relative viability ([12]; first compound 0.01581 µM)?
A: 1.14

Q: What about the relative viability ([12]; first compound 0.05 µM) of the same compound?
A: 1

Q: What about the relative viability ([12]; first compound 0.1581 µM) of the same compound?
A: 1.09

Q: And the relative viability ([12]; first compound 0.5 µM)?
A: 1.35

Q: What about the relative viability ([13]; first compound 0.005 µM) of the same compound?
A: 0.859

Q: What about the relative viability ([13]; first compound 0.01581 µM) of the same compound?
A: 0.912

Q: What about the relative viability ([13]; first compound 0.05 µM) of the same compound?
A: 0.859

Q: And the relative viability ([13]; first compound 0.1581 µM)?
A: 0.927

Q: And the relative viability ([13]; first compound 0.5 µM)?
A: 0.882

Q: And the relative viability ([14]; first compound 0.005 µM)?
A: 0.876

Q: And the relative viability ([14]; first compound 0.01581 µM)?
A: 1

Q: What about the relative viability ([14]; first compound 0.05 µM) of the same compound?
A: 0.934

Q: And the relative viability ([14]; first compound 0.1581 µM)?
A: 0.865

Q: What about the relative viability ([14]; first compound 0.5 µM) of the same compound?
A: 0.86

Q: And the relative viability ([15]; first compound 0.005 µM)?
A: 0.183

Q: And the relative viability ([15]; first compound 0.01581 µM)?
A: 0.213

Q: And the relative viability ([15]; first compound 0.05 µM)?
A: 0.165

Q: What about the relative viability ([15]; first compound 0.1581 µM) of the same compound?
A: 0.191

Q: And the relative viability ([15]; first compound 0.5 µM)?
A: 0.163

Q: And the relative viability ([16]; first compound 0.005 µM)?
A: 0.964

Q: What about the relative viability ([16]; first compound 0.01581 µM) of the same compound?
A: 1.03

Q: And the relative viability ([16]; first compound 0.05 µM)?
A: 1.15

Q: What about the relative viability ([16]; first compound 0.1581 µM) of the same compound?
A: 0.929

Q: And the relative viability ([16]; first compound 0.5 µM)?
A: 0.975

Q: What about the relative viability ([17]; first compound 0.005 µM) of the same compound?
A: 0.686

Q: What about the relative viability ([17]; first compound 0.01581 µM) of the same compound?
A: 1.22

Q: And the relative viability ([17]; first compound 0.05 µM)?
A: 0.866

Q: And the relative viability ([17]; first compound 0.1581 µM)?
A: 0.761

Q: And the relative viability ([17]; first compound 0.5 µM)?
A: 0.863

Q: What about the relative viability ([18]; first compound 0.005 µM) of the same compound?
A: 1.16

Q: And the relative viability ([18]; first compound 0.01581 µM)?
A: 1.13

Q: And the relative viability ([18]; first compound 0.05 µM)?
A: 1

Q: What about the relative viability ([18]; first compound 0.1581 µM) of the same compound?
A: 1.1

Q: And the relative viability ([18]; first compound 0.5 µM)?
A: 1.1

Q: And the relative viability ([19]; first compound 0.005 µM)?
A: 0.83

Q: And the relative viability ([19]; first compound 0.01581 µM)?
A: 1

Q: What about the relative viability ([19]; first compound 0.05 µM) of the same compound?
A: 0.748

Q: What about the relative viability ([19]; first compound 0.1581 µM) of the same compound?
A: 1.05

Q: And the relative viability ([19]; first compound 0.5 µM)?
A: 1.24

Q: What about the relative viability ([20]; first compound 0.005 µM) of the same compound?
A: 0.349

Q: What about the relative viability ([20]; first compound 0.01581 µM) of the same compound?
A: 0.737

Q: And the relative viability ([20]; first compound 0.05 µM)?
A: 0.379

Q: What about the relative viability ([20]; first compound 0.1581 µM) of the same compound?
A: 0.424

Q: And the relative viability ([20]; first compound 0.5 µM)?
A: 0.496
